Test results reported in patent publication US20240307382A1, “MODULATORS OF THE INTEGRATED STRESS PATHWAY” (Calico Life Sciences LLC, priority 2017, published 2024).

These molecules were tested on HEK293T cells carrying the ATF4 luciferase reporter (assay: ATF4-Luc assay (ATF4 luciferase reporter, tunicamycin-treated cells)). Conditions: Homo sapiens, HEK-293T, 1 μg/mL tunicamycin, 7 hours.
Type: cell-based
In short: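 A stable HEK293T reporter line was made by placing the full-length human ATF4 5′-UTR ahead of a firefly luciferase sequence without its start methionine, delivered by retroviral transduction and puromycin selection. Cells were seeded at 30,000 per well in polylysine-coated 384-well plates, exposed next day to 1 μg/mL tunicamycin plus compound for 7 hours, and luminescence was read with One Glo.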

Row | Compound | EC50
1 | O=C(COc1ccc(Cl)c(F)c1)NC12CCC(NC(=O)c3n[nH]c(-c4ccc(Cl)cc4)n3)(CC1)C[C@@H]2O [Compound 1068, N-{(3S)-4-[2-(4-chloro-3-fluorophenoxy)acetamido]-3-hydroxybicyclo[2.2.2]octan-1-yl}-5-(4-chlorophenyl)-1H-1,2,4-triazole-3-carboxamide] | > 2000 nM
2 | O=C(COc1ccc(Cl)c(F)c1)NC12CC(Nc3cncc(C(F)(F)F)c3)(C1)C2 [Compound 1045, 2-(4-chloro-3-fluorophenoxy)-N-(3-{[5-(trifluoromethyl)pyridin-3-yl]amino}bicyclo[1.1.1]pentan-1-yl)acetamide] | > 2000 nM
3 | Cc1cc(OCC(=O)NC23CCC(NC(=O)c4cc(C(F)F)no4)(CC2)C[C@@H]3O)ccc1Cl [Compound 1101, N-{(3S)-4-[2-(4-chloro-3-methylphenoxy)acetamido]-3-hydroxybicyclo[2.2.2]octan-1-yl}-3-(difluoromethyl)-1,2-oxazole-5-carboxamide] | < 50 nM
4 | CCc1ncc(C(=O)NC23CCC(NC(=O)COc4ccc(Cl)c(F)c4)(CC2)C[C@@H]3O)o1 [Compound 1106, N-{(2S)-4-[2-(4-chloro-3-fluorophenoxy)acetamido]-2-hydroxybicyclo[2.2.2]octan-1-yl}-2-ethyl-1,3-oxazole-5-carboxamide] | < 50 nM
5 | Cc1cc(C(=O)N(C)C23CCC(NC(=O)COc4ccc(Cl)c(Cl)c4)(CC2)[C@@H](O)C3)on1 [Compound 968, N-{(3S)-4-[2-(3,4-dichlorophenoxy)acetamido]-3-hydroxybicyclo[2.2.2]octan-1-yl}-N,3-dimethyl-1,2-oxazole-5-carboxamide] | 1000 to 2000 nM
6 | O=C(COc1ccc(Cl)c(F)c1)NC12CC(NC(=O)c3cc(F)cc4c3OCOC4)(C1)C2 [Compound 1085, N-{3-[2-(4-chloro-3-fluorophenoxy)acetamido]bicyclo[1.1.1]pentan-1-yl}-6-fluoro-2H,4H-1,3-benzodioxine-8-carboxamide] | 1000 to 2000 nM
7 | O=C(COc1ccc(Cl)c(F)c1)NC12CCC(NC(=O)c3ccc(-c4ccc(F)cc4)cn3)(CC1)CC2O (stereo not shown) [Compound 939, N-{4-[2-(4-chloro-3-fluorophenoxy)acetamido]-3-hydroxybicyclo[2.2.2]octan-1-yl}-5-(4-fluorophenyl)pyridine-2-carboxamide] | 250 to 1000 nM
8 | COc1ncc(C(=O)NC23CCC(NC(=O)COc4ccc(C(F)(F)F)c(F)c4)(CC2)[C@@H](O)C3)cn1 [Compound 1074, N-[(3S)-4-{2-[3-fluoro-4-(trifluoromethyl)phenoxy]acetamido}-3-hydroxybicyclo[2.2.2]octan-1-yl]-2-methoxypyrimidine-5-carboxamide] | 50 to 250 nM
9 | O=C(COc1ccc(Cl)c(F)c1)NC12CCC(NC(=O)c3ccc4c(n3)CCCC4)(CC1)[C@@H](O)C2 [Compound 1082, N-{(2S)-4-[2-(4-chloro-3-fluorophenoxy)acetamido]-2-hydroxybicyclo[2.2.2]octan-1-yl}-5,6,7,8-tetrahydroquinoline-2-carboxamide] | < 50 nM
10 | O=C(NC12CCC(NC(=O)c3cnc(-c4ccccc4)o3)(CC1)C2)c1cnc(-c2ccccc2)o1 [Compound 1055, N,N′-(bicyclo[2.2.1]heptane-1,4-diyl)bis(2-phenyl-1,3-oxazole-5-carboxamide)] | 50 to 250 nM
11 | COC(=O)c1ccc2nccc(NC34CC(NC(=O)COc5ccc(Cl)c(F)c5)(C3)C4)c2c1 [Compound 960, methyl 4-({3-[2-(4-chloro-3-fluorophenoxy)acetamido]bicyclo[1.1.1]pentan-1-yl}amino)quinoline-6-carboxylate] | < 50 nM
12 | Cc1ccc(C(=O)NC23CCC(NC(=O)COc4ccc(Cl)c(Cl)c4)(CC2)[C@@H](O)C3)nc1 [Compound 1029, N-{(3S)-4-[2-(3,4-dichlorophenoxy)acetamido]-3-hydroxybicyclo[2.2.2]octan-1-yl}-5-methylpyridine-2-carboxamide] | < 50 nM
13 | O=C(COc1ccccn1)NC12CCC(NC(=O)c3cc(C(F)F)no3)(CC1)C[C@@H]2O [Compound 1071, 3-(difluoromethyl)-N-[(3S)-3-hydroxy-4-{2-[(pyridin-2-yl)oxy]acetamido}bicyclo[2.2.2]octan-1-yl]-1,2-oxazole-5-carboxamide] | > 2000 nM
14 | COCC(=O)Nc1cc(F)c(F)cc1C(=O)NC12CC(NC(=O)COc3ccc(Cl)c(F)c3)(C1)C2 [Compound 1061, N-{3-[2-(4-chloro-3-fluorophenoxy)acetamido]bicyclo[1.1.1]pentan-1-yl}-4,5-difluoro-2-(2-methoxyacetamido)benzamide] | 250 to 1000 nM
15 | O=C(COc1ccc(Cl)c(F)c1)NC12CCC(NC(=O)c3cccc(O)c3)(CC1)CC2 [Compound 982, N-{4-[2-(4-chloro-3-fluorophenoxy)acetamido]bicyclo[2.2.2]octan-1-yl}-3-hydroxybenzamide] | 250 to 1000 nM
16 | O=C(COc1ccc(Cl)c(F)c1)NC12CC(NC(=O)c3cc4c(cn3)CCCC4)(C1)C2 [Compound 972, N-{3-[2-(4-chloro-3-fluorophenoxy)acetamido]bicyclo[1.1.1]pentan-1-yl}-5,6,7,8-tetrahydroisoquinoline-3-carboxamide] | 50 to 250 nM

Row | Compound | EC50
17 | Cn1nc(C(=O)NC23CCC(NC(=O)COc4ccc(Cl)c(F)c4)(CC2)[C@@H](O)C3)cc1-c1ccccc1 [Compound 1037, N-{(3S)-4-[2-(4-chloro-3-fluorophenoxy)acetamido]-3-hydroxybicyclo[2.2.2]octan-1-yl}-1-methyl-5-phenyl-1H-pyrazole-3-carboxamide] | < 50 nM
18 | O=C(COc1ccc(Cl)c(F)c1)NC12CCC(NC(=O)c3cc(CO)ccn3)(CC1)[C@@H](O)C2 [Compound 1105, N-{(2S)-4-[2-(4-chloro-3-fluorophenoxy)acetamido]-2-hydroxybicyclo[2.2.2]octan-1-yl}-4-(hydroxymethyl)pyridine-2-carboxamide] | < 50 nM
19 | O=C(COc1ccc(Cl)c(F)c1)NC12CCC(NC(=O)c3cc(CO)ccn3)(CC1)CC2 [Compound 995, N-{4-[2-(4-chloro-3-fluorophenoxy)acetamido]bicyclo[2.2.2]octan-1-yl}-4-(hydroxymethyl)pyridine-2-carboxamide] | < 50 nM
20 | O=C(COc1ccc(Cl)c(C(F)(F)F)c1)NC12CCC(NC(=O)c3cc(C(F)F)no3)(CC1)C[C@@H]2O [Compound 1096, N-[(3S)-4-{2-[4-chloro-3-(trifluoromethyl)phenoxy]acetamido}-3-hydroxybicyclo[2.2.2]octan-1-yl]-3-(difluoromethyl)-1,2-oxazole-5-carboxamide] | < 50 nM
21 | Cc1nn(C)cc1C(=O)NC12CCC(NC(=O)COc3ccc(Cl)c(F)c3)(CC1)C[C@@H]2O [Compound 1107, N-{(2S)-4-[2-(4-chloro-3-fluorophenoxy)acetamido]-2-hydroxybicyclo[2.2.2]octan-1-yl}-1,3-dimethyl-1H-pyrazole-4-carboxamide] | > 2000 nM
22 | O=C(COc1ccc(Cl)c(F)c1)NC12CC(Nc3cnc4nccnc4c3)(C1)C2 [Compound 966, 2-(4-chloro-3-fluorophenoxy)-N-{3-[(pyrido[2,3-b]pyrazin-7-yl)amino]bicyclo[1.1.1]pentan-1-yl}acetamide] | 250 to 1000 nM
23 | O=C(COc1ccc(Cl)c(Cl)c1)NC12CCC(NC(=O)c3cnc(C(F)(F)F)cn3)(CC1)C[C@@H]2O [Compound 1011, N-{(3S)-4-[2-(3,4-dichlorophenoxy)acetamido]-3-hydroxybicyclo[2.2.2]octan-1-yl}-5-(trifluoromethyl)pyrazine-2-carboxamide] | 50 to 250 nM
24 | Cn1ncc2cc(C(=O)NC34CC(NC(=O)COc5ccc(Cl)c(F)c5)(C3)C4)ccc21 [Compound 1023, N-{3-[2-(4-chloro-3-fluorophenoxy)acetamido]bicyclo[1.1.1]pentan-1-yl}-1-methyl-1H-indazole-5-carboxamide] | 250 to 1000 nM
25 | O=C(COc1ccc(Cl)c(F)c1)NC12CC(NC(=O)c3cnc4cc(F)ccc4n3)(C1)C2 [Compound 951, N-{3-[2-(4-chloro-3-fluorophenoxy)acetamido]bicyclo[1.1.1]pentan-1-yl}-6-fluoroquinoxaline-2-carboxamide] | < 50 nM
26 | O=C(COc1ccc(Cl)c(F)c1)NC12CCC(NC(=O)c3ccc(OC(F)(F)F)nc3)(CC1)CC2 [Compound 996, N-{4-[2-(4-chloro-3-fluorophenoxy)acetamido]bicyclo[2.2.2]octan-1-yl}-6-(trifluoromethoxy)pyridine-3-carboxamide] | > 2000 nM
27 | O=C(COc1ccc(Cl)c(Cl)c1)NC12CCC(NC(=O)c3cc(CO)ccn3)(CC1)CC2 [Compound 991, N-{4-[2-(3,4-dichlorophenoxy)acetamido]bicyclo[2.2.2]octan-1-yl}-4-(hydroxymethyl)pyridine-2-carboxamide] | < 50 nM
28 | Cc1cc(C(=O)NC23CCC(NC(=O)COc4ccc(Cl)c(F)c4)(CC2)C(=O)N3)on1 [Compound 1051, N-{4-[2-(4-chloro-3-fluorophenoxy)acetamido]-3-oxo-2-azabicyclo[2.2.2]octan-1-yl}-3-methyl-1,2-oxazole-5-carboxamide] | > 2000 nM
29 | O=C(COc1ccc(Cl)c(Cl)c1)NC12CCC(NC(=O)c3cnc4cc(F)ccc4n3)(CC1)C[C@@H]2O [Compound 1005, N-{(3S)-4-[2-(3,4-dichlorophenoxy)acetamido]-3-hydroxybicyclo[2.2.2]octan-1-yl}-6-fluoroquinoxaline-2-carboxamide] | < 50 nM
30 | O=C(COc1ccc(Cl)c(Cl)c1)NC12CCC(NC(=O)c3ccc4c(c3)OC(F)(F)O4)(CC1)C[C@@H]2O [Compound 985, N-{(3S)-4-[2-(3,4-dichlorophenoxy)acetamido]-3-hydroxybicyclo[2.2.2]octan-1-yl}-2,2-difluoro-2H-1,3-benzodioxole-5-carboxamide] | < 50 nM
31 | Cc1cc(C(=O)NC23CCC(NC(=O)COc4ccc(Cl)c(Cl)c4)(CC2)[C@@H](O)C3)sn1 [Compound 1002, N-{(3S)-4-[2-(3,4-dichlorophenoxy)acetamido]-3-hydroxybicyclo[2.2.2]octan-1-yl}-3-methyl-1,2-thiazole-5-carboxamide] | < 50 nM
